According to article PMC6928678, “Simplified Head-to-Tail Cyclic Polypeptides as Biomaterial-Associated Antimicrobials with Endotoxin Neutralizing and Anti-Inflammatory Capabilities” (International Journal of Molecular Sciences, 2019):
Converted amounts (≈) assume the structure as drawn. Read-outs that look alike come from different tables or passages of the source. Where a SMILES comes first, the peptide text is derived from it. Where no end group is shown, it is not given here. [ ]: non-standard residue; d: D form.

Columns and labels:
[1] = test system: all the 9 bacteria tested; assay: Geometric mean of MICs, all 9 bacteria; assay type: cell-based; settings: for tGM, geometric mean of the MICs against all the 9 bacteria: all 9 bacteria tested
Description: (§1) Briefly, the bacteria were incubated overnight at 37 °C with constant shaking at 220 rpm, then were transferred to new MH broth (MHB) medium until they reached the logarithmic phase of growth. The bacteria were then diluted to 10^5 (CFU)/mL in MHB. The peptides were dissolved and diluted in 0.01% acetic acid and 0.2% bovine serum albumin (BSA) at various concentrations (0.5–128 μM) in each well of sterile 96-well plates and incubated for 20 h at 37 °C. […] The test was repeated three times.

[2] = test system: human red blood cells (hRBCs); assay: Hemolysis assay; assay type: cell-based
Description: Figure 2 (A) Hemolytic activity of the engineered peptides against human red blood cells (hRBCs). The hRBCs were incubated with equal amounts of the respective peptides dissolved in PBS for 1 h at 37 °C. (B) Cytotoxicity of the engineered peptides against RAW264.7. […] Data shown are three independent experiments.
The hemolytic activity of the peptides is determined by measuring the amount of hemoglobin released during the lysis of human erythrocytes at different concentrations of AMPs. Briefly, fresh, healthy human red blood cells (hRBCs) were collected and then washed three times with phosphate-buffered saline (PBS) buffer (pH 7.2) and centrifuged at 1000× g for 5 min. Each 50 µL sample of hRBCs was incubated with 50 µL of the respective peptide dissolved in PBS in a well of a 96-well plate for 1 h at 37 °C. After incubation, the samples were centrifuged at 1000× g for 5 min and the supernatants (50 μL) were transferred to a new 96-well microplate. The release of hemoglobin was measured by monitoring the OD at 570 nm (Tecan, Salzburg, Austria). Negative (hRBCs without AMP treatment) and positive (hRBCs treated with 0.1% TritonX-100) controls were used. The concentration of peptide that caused 5% hemolysis was considered the minimal hemolysis concentration (MHC). The test was repeated three times. The percent hemolysis was calculated using the following formula:(2) Percent hemolysis=A−A0/At−A0× 100% A0 and At represent 0% and 100% hemolysis as measured in 10 mM PBS and 0.2% Triton X-100, respectively.

S. epidermidis 12228 = assay: microbe, parasite or virus in culture; assay type: cell-based
Description: (§2) The test strains, including Gram-negative E. coli ATCC25922, E. coli ATCC 1005, S. typhimurium C7731, P. aeruginosa ATCC 27853, S. Typhimurium 14028, Gram-positive S. aureus ATCC29213, S. aureus ATCC 25923, S. epidermidis ATCC 12228 and S. aureus 43300, were obtained from the School of Veterinary Medicine, Northeast Agricultural University (Harbin, China).
as §1

P. aeruginosa 27853 = assay: microbe, parasite or virus in culture; assay type: cell-based; settings: read-out: MIC
Description: as §2, §1

S. typhimurium 14028 = assay: microbe, parasite or virus in culture; assay type: cell-based
Description: as §2, §1

S. typhimurium 7731 = assay: microbe, parasite or virus in culture; assay type: cell-based
Description: as §2, §1

[3] = test system: Gram-positive and Gram-negative bacteria; assay: Antimicrobial assay (MIC), statement over all strains; assay type: cell-based; settings: all strains tested
Description: as §1

[4] = test system: gram-positive strains tested; assay: organism not typed; assay type: cell-based; settings: for pGM (+), geometric mean of the MICs against gram-positive strains: 20 h
Description: as §1

[5] = test system: gram-negative strains tested; assay: Geometric mean of MICs, gram-negative strains; assay type: cell-based; settings: 5 gram-negative strains; >128 apparently counted as 256; read-out: nGM (–), geometric mean of the MICs against gram-negative strains
Description: as §1

MRSA43300 = assay: microbe, parasite or virus in culture; assay type: cell-based, Methicillin-resistant Staphylococcus aureus
Description: as §2, §1

S. aureus 25923 = assay: microbe, parasite or virus in culture; assay type: cell-based, Staphylococcus aureus
Description: as §2, §1

S. aureus 29213 = assay: microbe, parasite or virus in culture; assay type: cell-based, Staphylococcus aureus
Description: as §2, §1

E. coli UB 1005 = assay: microbe, parasite or virus in culture; assay type: cell-based, Escherichia coli
Description: as §2, §1

E. coli 25922 = assay: microbe, parasite or virus in culture; assay type: cell-based, Escherichia coli
Description: as §2, §1

[6] = RP-HPLC used as measure of hydrophobicity; 4.6 mm × 250 mm Venusil MP C18-5 column, 220 nm, linear acetonitrile gradient 15% to 45% in 30 min, 0.1% trifluoroacetic acid, 1 mL/min
Source text: In this experiment, cyclic, linear and D-proline antimicrobial peptides were designed based on the IR-rich template sequence (IR)nP(IR)nP (n = 1, 2 and 3). […] The […] molecular weights of the peptides were identified using mass spectrometry. […] The hydrophobicity of the peptides in solution is dependably mirrored by the HPLC retention times.

[7] = test system: bacteria versus human red blood cell; assay: Selectivity index (MHC5/GM); settings: 256 μM used for MHC5 when no hemolysis at 128 μM
Description: To investigate the cell selectivity of novel antimicrobials, the total selectivity index (TSI) was calculated as the ratio of the minimal hemolysis concentration (MHC) to the geometric mean (GM) of the MIC values (Table 2).

| Molecule | tGM, geometric mean of the MICs against all the 9 bacteria [1] [µM] | MHC5, minimum hemolytic concentration that induced ≥5% hemolysis ([2]; red cells of human, 1 h) [µM] | MIC (S. epidermidis 12228; 12228, 20 h) [µM] | MIC (P. aeruginosa 27853; 27853, 20 h) [µM] | MIC (S. typhimurium 14028; 14028, 20 h) [µM] | MIC (S. typhimurium 7731; 7731, 20 h) [µM] | MIC in the presence of Gram-positive and Gram-negative bacteria [3] | pGM (+), geometric mean of the MICs against gram-positive strains [4] [µM] | MIC [5] [µM] | MIC (MRSA43300; 20 h) [µM] | MIC (S. aureus 25923; 25923, 20 h) [µM] | MIC (S. aureus 29213; 29213, 20 h) [µM] | MIC (E. coli UB 1005; UB 1005, 20 h) [µM] | MIC (E. coli 25922; 25922, 20 h) [µM] | RT (retention time) [6] [min] | also measured |
| --- | --- | --- | --- | --- | --- | --- | --- | --- | --- | --- | --- | --- | --- | --- | --- | --- |
| CC[C@H](C)[C@H](N)C(=O)N[C@@H](CCCNC(=N)N)C(=O)N1CCC[C@@H]1C(=O)N[C@H](C(=O)N[C@@H](CCCNC(=N)N)C(=O)N1CCC[C@@H]1C(=O)O)[C@@H](C)CC [DIR1] (H-IR[dP]IR[dP]-OH) | 256 | >128 | >128 | >128 | >128 | >128 | greater than 128 μM | 256 | 256 (≈ 192 µg/mL) | >128 | >128 | >128 | >128 | >128 | – | – |
| CC[C@H](C)[C@@H]1NC(=O)[C@@H]2CCCN2C(=O)[C@H](CCCNC(=N)N)NC(=O)[C@H]([C@@H](C)CC)NC(=O)[C@@H]2CCCN2C(=O)[C@H](CCCNC(=N)N)NC1=O [OIR1] (cyclo(IRPIRP)) | 256 | >128 | >128 | >128 | >128 | >128 | greater than 128 μM | 256 | 256 (≈ 188 µg/mL) | >128 | >128 | >128 | >128 | >128 | 10.32 | – |
| CC[C@H](C)[C@@H]1NC(=O)[C@H](CCCNC(=N)N)NC(=O)[C@H]([C@@H](C)CC)NC(=O)[C@@H]2CCCN2C(=O)[C@H](CCCNC(=N)N)NC(=O)[C@H]([C@@H](C)CC)NC(=O)[C@H](CCCNC(=N)N)NC(=O)[C@H]([C@@H](C)CC)NC(=O)[C@@H]2CCCN2C(=O)[C@H](CCCNC(=N)N)NC1=O [OIR2] (cyclo(IRIRPIRIRP)) | 188.1 | >128 | >128 | >128 | >128 | >128 | – | 256 | 147.0 (≈ 187 µg/mL) | >128 | >128 | >128 | 64 (≈ 81.4 µg/mL) | 64 (≈ 81.4 µg/mL) | 10.66 | – |
| CC1(C)S[C@@H]2[C@H](NC(=O)Cc3ccccc3)C(=O)N2[C@H]1C(=O)O [PS, Penicillin Sodium, reference compound] | – | – | – | – | – | – | – | – | 24.3 | – | – | – | – | – | – | GM MIC (range of Gram-negative and Gram-positive geometric means) ([1]; Table 2): 13.5 to 24.3 µM; MIC ([1]; read-out: tGM, geometric mean of the MICs against all the 9 bacteria): 18.7 µM; nSI (–), selectivity index MHC5/GM (−) [7]: 10.5; pSI (+), selectivity index MHC5/GM(+) [7]: 19.0; tSI, total selectivity index MHC5/TGM [7]: 13.7; MHC5, minimum hemolytic concentration that induced ≥5% hemolysis ([2]; human red blood cells, PBS, 1 h at 37 °C, OD 570 nm, repeated three times): >128 µM; MIC (S. epidermidis 12228; Staphylococcus epidermidis, S. epidermidis 12228, MHB, 10^5 CFU/mL, 20 h 37 °C, repeated three times): 0.5 µM; MIC (P. aeruginosa 27853; Pseudomonas aeruginosa, P. aeruginosa 27853, MHB, 10^5 CFU/mL, 20 h 37 °C, repeated three times): 128 µM; MIC (S. typhimurium 14028; Salmonella enterica, S. typhimurium 14028, MHB, 10^5 CFU/mL, 20 h 37 °C, repeated three times): 16 µM; MIC (S. typhimurium 7731; Salmonella enterica, S. typhimurium 7731, MHB, 10^5 CFU/mL, 20 h 37 °C, repeated three times): 0.5 µM; MIC ([4]; 4 gram-positive strains, >128 apparently counted as 256, read-out: pGM (+), geometric mean of the MICs against gram-positive strains): 13.5 µM; MIC (MRSA43300; Staphylococcus aureus, MRSA43300, MHB, 10^5 CFU/mL, 20 h 37 °C, repeated three times): 32 µM; MIC (S. aureus 25923; Staphylococcus aureus, S. aureus 25923, MHB, 10^5 CFU/mL, 20 h 37 °C, repeated three times): 32 µM; MIC (S. aureus 29213; Staphylococcus aureus, S. aureus 29213, MHB, 10^5 CFU/mL, 20 h 37 °C, repeated three times): 64 µM; MIC (E. coli UB 1005; Escherichia coli, UB1005, E. coli UB 1005, MHB, 10^5 CFU/mL, 20 h 37 °C, repeated three times): 64 µM; MIC (E. coli 25922; Escherichia coli, E. coli 25922, MHB, 10^5 CFU/mL, 0.5–128 μM peptide, 20 h 37 °C, OD 492 nm, repeated three times): 128 µM |
| IRPIRP [IR1] | 256 | >128 | >128 | >128 | >128 | >128 | greater than 128 μM | 256 | 256 | >128 | >128 | >128 | >128 | >128 | – | – |
